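Step 1: Grow cells in 96-well plates. Step 2: Expose to compound for 48 hours at 5 concentrations. Step 3: Interpolate endpoints linearly; if unreached, use highest concentration. TGI denotes the concentration required for complete inhibition of growth.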
What was measured:
Assay in all cases: inhibition of tumour cell growth, NCI panel, 48 h
MOLT-4 leukemia = test system: MOLT-4 leukemia
SNB-19 CNS = test system: SNB-19 CNS
M14 melanoma = test system: M14 melanoma
KM12 colon = test system: KM12 colon
SR leukemia = test system: SR leukemia
UO-31 renal = test system: UO-31 renal
RPMI-8226 leukemia = test system: RPMI-8226 leukemia
SK-MEL-2 melanoma = test system: SK-MEL-2 melanoma
COLO 205 colon = test system: COLO 205 colon
SK-MEL-5 melanoma = test system: SK-MEL-5 melanoma
IGROV1 ovarian = test system: IGROV1 ovarian
UACC-257 melanoma = test system: UACC-257 melanoma
CCRF-CEM leukemia = test system: CCRF-CEM leukemia
786-0 renal = test system: 786-0 renal
HOP-62 NSCLC = test system: HOP-62 NSCLC
NCI-H23 lung = test system: NCI-H23 lung
MALME-3M melanoma = test system: MALME-3M melanoma
CAKI-1 renal = test system: CAKI-1 renal
ACHN renal = test system: ACHN renal
SW-620 colon = test system: SW-620 colon
SK-MEL-28 melanoma = test system: SK-MEL-28 melanoma
OVCAR-5 ovarian = test system: OVCAR-5 ovarian
SF-268 CNS = test system: SF-268 CNS
MDA-MB-435 = test system: MDA-MB-435
DU-145 prostate = test system: DU-145 prostate
MCF7 breast = test system: MCF7 breast
HCT-15 colon = test system: HCT-15 colon
HL-60(TB) leukemia = test system: HL-60(TB) leukemia
HS 578T breast = test system: HS 578T breast
OVCAR-3 ovarian = test system: OVCAR-3 ovarian
SK-OV-3 ovarian = test system: SK-OV-3 ovarian
BT-549 breast = test system: BT-549 breast
NCI-H226 lung = test system: NCI-H226 lung
SF-539 CNS = test system: SF-539 CNS
HCT-116 colon = test system: HCT-116 colon
UACC-62 melanoma = test system: UACC-62 melanoma
HOP-92 NSCLC = test system: HOP-92 NSCLC
K-562 leukemia = test system: K-562 leukemia
EKVX NSCLC = test system: EKVX NSCLC
OVCAR-4 ovarian = test system: OVCAR-4 ovarian
RXF 393 renal = test system: RXF 393 renal
NCI-H522 lung = test system: NCI-H522 lung
HCC-2998 colon = test system: HCC-2998 colon
MDA-N = test system: MDA-N
NCI/ADR-RES ovarian = test system: NCI/ADR-RES ovarian
SN12C renal = test system: SN12C renal
SF-295 CNS = test system: SF-295 CNS
TK-10 renal = test system: TK-10 renal
SNB-75 CNS = test system: SNB-75 CNS
MDA-MB-231 breast = test system: MDA-MB-231 breast
PC-3 prostate = test system: PC-3 prostate
A549 NSCLC = test system: A549 NSCLC
HT29 colon = test system: HT29 colon
OVCAR-8 ovarian = test system: OVCAR-8 ovarian
T-47D breast = test system: T-47D breast
LOX IMVI melanoma = test system: LOX IMVI melanoma
U251 CNS = test system: U251 CNS
A498 renal = test system: A498 renal
NCI-H460 lung = test system: NCI-H460 lung

Measured: TGI

Cc1cc2ncn(C3CCCO3)c2cc1C (centres undefined)
not listed: A498 renal | NCI-H460 lung
> 100 µM: all other assays above

Cn1c(O)c(C2=Nc3ccccc3C2=O)c2ccccc21
not listed: HL-60(TB) leukemia | SF-539 CNS
> 100 µM: all other assays above

— PubChem BioAssay (NCI)
